The source of these data is patent US20260242738A1, “ALK5 INHIBITORS FOR EFFICIENT DERIVATION OF MESENCHYMAL STEM CELLS FROM EMBRYONIC STEM CELLS” (SCRIPPS HEALTH, priority 2022, published 2026).

In one test the test system is HADC100 ESC. Put plainly: Gene expression of ES-MSC in monolayer culture. In kind it is cell-based, human. The following applies: comparison of ALK5 inhibitors. The method, then:
An overview of the differentiation process is provided in FIG. 1, panel K. To create cell clusters or embryoid bodies of uniform size, ESCs were removed from CellStart culture using Accutase® for 2-5 minutes until single cells were observed. Cells (2.5-3×10^5 cells per ml) were suspended in StemPro human ESC serum free medium (ThermoFisher) with 10 μM Y-27632 (EMD Chemicals, Gibbstown, NJ) and 40 ng/ml FGF (Life Technologies, Carlsbad, CA) in a 125 ml spinner culture flask (Corning Inc., Corning, NY) on a magnetic stirrer (CimarecTM Biosystem Slow-Speed Stirrer, ThermoFisher) at 70 rpm for 24 hours at 37° C. with 5% CO2 to form small cell clusters (minimum total cells was 7.5×10^6 in 30 ml). After 24 hours, the cell clusters were suspended at 2.5-3×10^5 cells per ml in ultra-low adherent 6 well plates (Corning) in […] free medium (ThermoFisher) supplemented with 2 mM L-glutamine (ThermoFisher Scientific), 50 μg/ml Ascorbic acid (Stemcell Technologies, Vancouver, Canada) and 1.8 μl/ml ITS-G (100× Insulin-Transferrin-Selenium; ThermoFisher); termed as “complete SP-34 medium”. […] Expression of the following genes was quantified POU5F1/OCT4 and SOX2 (for pluripotency); FOXA1 and SOX17 (for endoderm); NES and PAX6 (for ectoderm); NKX2-5, MSX1, NCAM1, and SOX9 (for mesoderm); ITGB1/CD29 (for MSC phenotype); and COL1A1, COL2A1, COL10A1, COMP, ACAN, and SOX9 and RUNX2 (for chondrogenesis). […]

The next test concerns H9 ES-MSC. Put plainly: Chondrogenic gene expression of pellets relative to monolayer controls. In kind it is cell-based, human. The method, then:
(§1) Monolayer-expanded ES-MSC (passage 2-5) were detached using Accutase® and 0.5×10^6 cells in 0.5 ml of chondrogenic medium were centrifuged at 900 rpm (~770 G) for 5 minutes to form high-density pellets. At least 5-6 pellets, for each ES-MSC condition, were cultured in serum-free chondrogenic medium consisting of Dulbecco's Modified Eagle Medium (Mediatech Inc., Manassas, VA), 1×ITS supplement (Sigma-Aldrich, St. Louis, MO), 100 nM Dexamethasone (Sigma), 1.25 mg/ml human serum albumin (Bayer, Leverkusen, Germany), 100 μM ascorbic acid 2-phosphate (Sigma), 1% penicillin/streptomycin/gentamycin (PSG, Gibco, Carlsbad, CA), and 10 ng/ml TGFβ3 (PeproTech, Rocky Hill, NJ). Pellets for ex vivo implantation were cultured for 3 days before implantation; pellets for histologic or gene expression analysis were maintained in culture for 3 weeks with media changes every 3 to 4 days.
(§2) Total RNA was extracted from using the RNeasy kit as recommended by the manufacturer (QIAGEN, Valencia, CA). […] Expression of the following genes was quantified POU5F1/OCT4 and SOX2 (for pluripotency); FOXA1 and SOX17 (for endoderm); NES and PAX6 (for ectoderm); NKX2-5, MSX1, NCAM1, and SOX9 (for mesoderm); ITGB1/CD29 (for MSC phenotype); and COL1A1, COL2A1, COL10A1, COMP, ACAN, and SOX9 and RUNX2 (for chondrogenesis). […]

The subject of a further test is HADC 100 ES-MSC. The description is as above. In kind it is cell-based, human. The following applies: HADC 100 ES-MSC pellets. The method, then: as §1, §2
For another test, the system named is HUES9 ESC. The following applies: 10 μM SB431542, fibronectin, monolayer with 10% FBS; cited from earlier work.

For `NC(=O)c1ccc(-c2nc(-c3ccc4c(c3)OCO4)c(-c3ccccn3)[nH]2)cc1` [SB431542], in the test with HADC100 ESC, the “generating mesoderm markers (NCAM1, SOX9) and increasing COL2A1 expression” value is “superior”. For the same compound, the “chondrogenic genes (COL2A1, ACAN, COMP and SOX9) relative to monolayer controls” value with H9 ES-MSC and in the test with HADC 100 ES-MSC was “higher levels” throughout. Also, the “enrichment for MSC markers CD44, CD73, CD146, and CD166” value with HUES9 ESC is “highly enriched”.
